Here are results for one compound from US9067894B1, “Compound, composition, and method of activating GIRK potassium channel and use of same for treating conditions of interest” (Vanderbilt University, priority 2013, dated 2015).

Entries after “also recorded” stand apart in the source; their conditions may differ.

One series addresses T1, Bradykinin B1 (Homo sapiens, UniProt P46663).
T1 construct: Ricerca
As to the kind of experiment: Radioligand displacement (Ricerca). Type of series: binding. For orientation: Displacement assays read how much labelled ligand stays bound in the presence of the test substance.

The next series deals with Phorbol ester. As to the kind of experiment: Radioligand displacement (Ricerca). In kind it is binding, mouse. The settings on record: 10 μM.
In the next series the target is T2, Muscarinic M2 (Homo sapiens, UniProt P08172).
T2 construct: Ricerca (contract laboratory that ran the panel)
Nature of the series: Radioligand displacement (Ricerca). Type of series: binding.

A further series addresses T3, Endothelin ETA (Homo sapiens, UniProt P25101).
T3 construct: Ricerca
As to the kind of experiment: Radioligand displacement (Ricerca). In kind it is binding.

The target in a further series is T4, Neuropeptide Y (Y2) (Homo sapiens, UniProt P49146).
T4 construct: Ricerca (contract laboratory that ran the panel)
As to the kind of experiment: Radioligand displacement (Ricerca). Type of series: binding.

Series [1] can be described thus: Home cage locomotor activity (SmartCage). In kind it is in vivo, mouse. The settings on record: mice, 60 mg/kg i.p., 24 hours after injection. On the procedure: The SmartCageTM system ([…], Inc., Burlingame, Calif.) was used to assess compound effects on spontaneous homecage activity. Automated data analysis was performed using CageScoreTM software ([…], Inc.). The home cage activity was determined by beam breaks (x, y, and z photo-beam break counts). Distance traveled in centimeters was obtained from the lower horizontal sensors (x and y) taking into account the path taken. Average velocity was distance traveled/second in the forward direction, averaged over the block time (bin). Mice (male C57/BL6, 8-10 months old, approximately 30 g) mice were assessed continuously for 72 hours. The first 24 hours was used as a habituation period. The locomotion data obtained from the second 24 hours served as the baseline data for each mouse. […] After receiving their respective treatments, each mouse's locomotor activity was monitored over the 24 hours to assess recovery from drug effects.

In a further series the target is T5, PAF (Homo sapiens, UniProt P25105).
T5 construct: Ricerca (contract laboratory that ran the panel)
Nature of the series: Radioligand displacement (Ricerca). In kind it is binding.

Series [2] in a line: Plasma protein binding, equilibrium dialysis. In kind it is in vitro ADME, mouse. The settings on record: murine plasma. As for the experimental part:
Plasma Protein Binding. […] Briefly plasma (220 μL) was added to the 96-well plate containing test article (5 μL) and mixed thoroughly. Subsequently, 200 μl of the plasma-test article mixture was transferred to the cis chamber (red) of the RED plate, with an accompanying 350 μL of phosphate buffer (25 mM, pH 7.4) in the trans chamber. The RED plate was sealed and incubated 4 h at 37° C. with shaking. At completion, 50 μL aliquots from each chamber were diluted 1:1 (50 μL) with either plasma (cis) or buffer (trans) and transferred to a new 96-well plate, at which time ice-cold acetonitrile (2 volumes) was added to extract the matrices. The plate was centrifuged (3000 rcf, 10 min) and supernatant solutions transferred to a new 96-well plate. The sealed plate was stored at −20° C. until LC/MS/MS analysis.
Liquid Chromatography/Mass Spectrometry Analysis. In vitro experiments. VU0456810 was analyzed on a Thermo Electron TSQ Quantum Ultra triple quad mass spectrometer (San Jose, Calif.) via electrospray ionization (ESI) with two Themo Electron Accella pumps (San Jose, Calif.), and a Leap Technologies CTC PAL autosampler (Carrboro, N.C.). Analytes were separated by gradient elution on a dual column system with two Thermo Hypersil Gold (2.1×30 mm, 1.9 μm) columns (San Jose, Calif.) at 40° C. HPLC mobile phase A was 0.1% formic acid in water and mobile phase B was 0.1% formic acid in acetonitrile. […]
On the technique in general: In equilibrium dialysis only unbound substance equilibrates across the membrane.

A further series addresses T6, Opiate (KOP) (Homo sapiens, UniProt P41145).
T6 construct: Ricerca (contract laboratory that ran the panel)
Nature of the series: Radioligand displacement (Ricerca). In kind it is binding.

T6 sequence (P41145 whole entry): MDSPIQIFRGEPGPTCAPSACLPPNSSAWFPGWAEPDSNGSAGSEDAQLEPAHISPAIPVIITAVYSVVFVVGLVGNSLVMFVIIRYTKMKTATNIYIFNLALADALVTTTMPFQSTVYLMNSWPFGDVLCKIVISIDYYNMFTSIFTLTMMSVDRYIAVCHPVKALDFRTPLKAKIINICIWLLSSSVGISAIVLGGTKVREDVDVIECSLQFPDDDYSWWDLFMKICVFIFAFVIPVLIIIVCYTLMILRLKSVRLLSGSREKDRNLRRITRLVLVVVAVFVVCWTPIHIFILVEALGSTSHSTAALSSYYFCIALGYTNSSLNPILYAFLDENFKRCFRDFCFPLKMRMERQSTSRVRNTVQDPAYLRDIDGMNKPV
T4 sequence (P49146 whole entry): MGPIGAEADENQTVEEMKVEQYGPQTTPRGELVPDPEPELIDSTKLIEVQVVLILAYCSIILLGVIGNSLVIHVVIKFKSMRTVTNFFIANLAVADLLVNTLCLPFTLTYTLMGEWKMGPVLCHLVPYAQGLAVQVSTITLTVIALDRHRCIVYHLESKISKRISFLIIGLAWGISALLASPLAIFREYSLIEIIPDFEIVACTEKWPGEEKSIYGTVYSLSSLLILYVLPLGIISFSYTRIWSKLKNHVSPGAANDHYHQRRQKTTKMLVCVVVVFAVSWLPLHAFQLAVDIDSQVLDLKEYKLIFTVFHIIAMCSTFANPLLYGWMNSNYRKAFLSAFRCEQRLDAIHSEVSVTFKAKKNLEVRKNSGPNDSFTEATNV
T2 sequence (P08172 whole entry): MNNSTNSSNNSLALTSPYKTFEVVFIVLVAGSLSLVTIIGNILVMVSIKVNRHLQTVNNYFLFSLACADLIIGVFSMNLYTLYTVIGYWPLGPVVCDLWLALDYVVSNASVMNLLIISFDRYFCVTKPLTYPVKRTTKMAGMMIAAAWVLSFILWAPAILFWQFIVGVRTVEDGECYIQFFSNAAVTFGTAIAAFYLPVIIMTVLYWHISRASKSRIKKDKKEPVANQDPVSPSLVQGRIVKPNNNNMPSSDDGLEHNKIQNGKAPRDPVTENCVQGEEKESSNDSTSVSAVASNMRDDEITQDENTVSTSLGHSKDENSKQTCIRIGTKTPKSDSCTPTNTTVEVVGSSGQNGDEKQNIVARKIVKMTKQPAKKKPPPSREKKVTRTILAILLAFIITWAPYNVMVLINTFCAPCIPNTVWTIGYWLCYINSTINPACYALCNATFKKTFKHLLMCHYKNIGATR
T1 sequence (P46663 whole entry): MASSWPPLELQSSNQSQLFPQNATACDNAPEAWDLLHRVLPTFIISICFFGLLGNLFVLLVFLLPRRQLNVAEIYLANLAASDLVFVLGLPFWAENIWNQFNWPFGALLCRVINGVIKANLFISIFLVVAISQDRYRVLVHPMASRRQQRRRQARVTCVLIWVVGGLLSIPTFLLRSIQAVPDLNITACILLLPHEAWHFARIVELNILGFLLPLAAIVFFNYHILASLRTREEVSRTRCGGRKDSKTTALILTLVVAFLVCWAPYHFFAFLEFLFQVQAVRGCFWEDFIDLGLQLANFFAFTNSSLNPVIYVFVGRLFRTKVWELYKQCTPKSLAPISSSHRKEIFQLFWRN
T3 sequence (P25101 21-427): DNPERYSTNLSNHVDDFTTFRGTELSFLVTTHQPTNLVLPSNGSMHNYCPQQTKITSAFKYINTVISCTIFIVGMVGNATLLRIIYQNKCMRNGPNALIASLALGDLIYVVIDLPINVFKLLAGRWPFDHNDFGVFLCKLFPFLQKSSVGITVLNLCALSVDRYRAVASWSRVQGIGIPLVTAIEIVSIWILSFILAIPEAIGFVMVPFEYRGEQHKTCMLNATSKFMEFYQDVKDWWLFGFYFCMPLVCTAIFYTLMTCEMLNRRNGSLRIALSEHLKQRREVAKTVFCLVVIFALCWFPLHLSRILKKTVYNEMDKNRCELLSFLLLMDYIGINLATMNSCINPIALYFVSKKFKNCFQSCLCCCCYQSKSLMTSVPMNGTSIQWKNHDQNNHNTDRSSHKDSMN
T5 sequence (P25105 whole entry): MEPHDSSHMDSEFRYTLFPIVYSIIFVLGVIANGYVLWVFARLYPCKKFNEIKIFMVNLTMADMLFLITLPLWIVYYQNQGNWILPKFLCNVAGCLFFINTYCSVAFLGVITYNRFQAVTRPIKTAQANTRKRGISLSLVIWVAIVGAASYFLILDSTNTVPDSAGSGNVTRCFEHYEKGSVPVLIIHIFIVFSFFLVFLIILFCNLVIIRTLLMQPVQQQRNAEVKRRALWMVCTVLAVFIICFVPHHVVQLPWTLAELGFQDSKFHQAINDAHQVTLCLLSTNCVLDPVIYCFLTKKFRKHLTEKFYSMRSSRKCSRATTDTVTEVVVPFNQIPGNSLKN

For `Cc1cc(NC(=O)Nc2ccc(F)c(F)c2)n(-c2ccccc2)n1` [VU0456810, 1-(3,4-difluorophenyl)-3-(3-methyl-1-phenyl-1H-pyrazol-5-yl)urea], the inhibition (in general, the change of the read-out against control, counted positive when it falls) at 10 µM is -2% on Bradykinin B1; -17% on Muscarinic M2; 1% at Endothelin ETA; -5% on Neuropeptide Y (Y2); 2% on PAF; 1% on Opiate (KOP). In the series on Phorbol ester, the % Inhibition (as a rule, the share of the control response that was lost under treatment) came to 1%. The “locomotor activity in home cage vs vehicle” value in series [1] was “overall decrease in locomotor activity; also recorded: decreased”. The “Plasma Protein Binding” value in [2] was found to be 3 % fu.
